Assay results: article PMC6704710, “Preclinical evaluation of 3D185, a novel potent inhibitor of FGFR1/2/3 and CSF-1R, in FGFR-dependent and macrophage-dominant cancer models” (Journal of Experimental & Clinical Cancer Research : CR, 2019)

Assays:
Experiment in all cases: Eurofins kinase panel
Type in all cases: biochemical
Details in all cases: read-out: Inhibition rate (%)
PKBγ(h) = biological target: T1, PKBγ(h) (Homo sapiens, UniProt Q9Y243)
T1 construct: purchased Eurofins (KinaseProfiler)

JAK1(h) = biological target: T2, JAK1(h) (Homo sapiens, UniProt P23458)
T2 construct: purchased Eurofins (KinaseProfiler)

EphB3(h) = biological target: T3, EphB3(h) (Homo sapiens, UniProt P54753)
T3 construct: purchased Eurofins (KinaseProfiler)
T3 sequence (P54753 34-998): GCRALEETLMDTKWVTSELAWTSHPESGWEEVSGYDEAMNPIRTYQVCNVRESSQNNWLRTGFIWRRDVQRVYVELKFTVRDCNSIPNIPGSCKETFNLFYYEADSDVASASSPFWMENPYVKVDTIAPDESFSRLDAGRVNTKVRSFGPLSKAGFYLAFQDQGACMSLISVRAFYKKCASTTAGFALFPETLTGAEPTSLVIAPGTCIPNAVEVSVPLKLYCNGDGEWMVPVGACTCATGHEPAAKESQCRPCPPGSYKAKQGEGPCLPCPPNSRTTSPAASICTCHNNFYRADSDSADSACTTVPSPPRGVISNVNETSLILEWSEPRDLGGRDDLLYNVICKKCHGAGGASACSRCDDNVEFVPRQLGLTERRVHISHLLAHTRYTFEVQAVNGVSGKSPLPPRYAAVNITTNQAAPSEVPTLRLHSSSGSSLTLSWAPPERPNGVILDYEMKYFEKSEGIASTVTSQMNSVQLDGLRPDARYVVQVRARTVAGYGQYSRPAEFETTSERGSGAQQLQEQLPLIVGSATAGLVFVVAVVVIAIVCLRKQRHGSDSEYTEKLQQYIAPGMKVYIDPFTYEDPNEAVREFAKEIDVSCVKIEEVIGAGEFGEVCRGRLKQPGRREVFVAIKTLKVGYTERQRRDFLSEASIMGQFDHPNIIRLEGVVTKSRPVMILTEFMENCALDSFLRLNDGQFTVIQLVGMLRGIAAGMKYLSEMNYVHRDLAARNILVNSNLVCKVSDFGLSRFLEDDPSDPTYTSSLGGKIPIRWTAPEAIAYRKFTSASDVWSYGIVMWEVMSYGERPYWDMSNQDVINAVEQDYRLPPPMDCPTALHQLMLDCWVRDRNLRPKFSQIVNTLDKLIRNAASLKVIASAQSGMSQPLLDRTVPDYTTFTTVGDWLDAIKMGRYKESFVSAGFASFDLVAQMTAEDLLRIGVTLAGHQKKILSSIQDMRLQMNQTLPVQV

PKCβI(h) = biological target: T4, PKCβI(h) (Homo sapiens, UniProt P05771)
T4 construct: purchased Eurofins (KinaseProfiler)

CK1γ1(h) = biological target: T5, CK1γ1(h) (Homo sapiens, UniProt Q9HCP0)
T5 construct: purchased Eurofins (KinaseProfiler)
T5 sequence (Q9HCP0 whole entry): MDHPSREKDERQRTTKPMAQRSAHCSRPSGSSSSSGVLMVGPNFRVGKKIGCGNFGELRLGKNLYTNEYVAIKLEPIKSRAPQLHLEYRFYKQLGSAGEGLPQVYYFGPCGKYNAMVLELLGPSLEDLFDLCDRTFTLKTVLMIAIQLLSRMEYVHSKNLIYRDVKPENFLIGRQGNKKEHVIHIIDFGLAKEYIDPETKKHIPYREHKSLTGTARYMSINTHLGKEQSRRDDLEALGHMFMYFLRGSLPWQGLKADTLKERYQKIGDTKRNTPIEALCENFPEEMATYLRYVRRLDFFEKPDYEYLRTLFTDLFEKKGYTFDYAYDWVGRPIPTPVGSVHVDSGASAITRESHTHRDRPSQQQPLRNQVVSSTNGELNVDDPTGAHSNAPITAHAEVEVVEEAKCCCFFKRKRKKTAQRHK

CSK(h) = biological target: T6, CSK(h) (Homo sapiens, UniProt P41240)
T6 construct: purchased Eurofins (KinaseProfiler)

MLK2(h) = biological target: T7, MLK2(h) (Homo sapiens, UniProt Q02779)
T7 construct: purchased Eurofins (KinaseProfiler)
T7 sequence (Q02779 whole entry): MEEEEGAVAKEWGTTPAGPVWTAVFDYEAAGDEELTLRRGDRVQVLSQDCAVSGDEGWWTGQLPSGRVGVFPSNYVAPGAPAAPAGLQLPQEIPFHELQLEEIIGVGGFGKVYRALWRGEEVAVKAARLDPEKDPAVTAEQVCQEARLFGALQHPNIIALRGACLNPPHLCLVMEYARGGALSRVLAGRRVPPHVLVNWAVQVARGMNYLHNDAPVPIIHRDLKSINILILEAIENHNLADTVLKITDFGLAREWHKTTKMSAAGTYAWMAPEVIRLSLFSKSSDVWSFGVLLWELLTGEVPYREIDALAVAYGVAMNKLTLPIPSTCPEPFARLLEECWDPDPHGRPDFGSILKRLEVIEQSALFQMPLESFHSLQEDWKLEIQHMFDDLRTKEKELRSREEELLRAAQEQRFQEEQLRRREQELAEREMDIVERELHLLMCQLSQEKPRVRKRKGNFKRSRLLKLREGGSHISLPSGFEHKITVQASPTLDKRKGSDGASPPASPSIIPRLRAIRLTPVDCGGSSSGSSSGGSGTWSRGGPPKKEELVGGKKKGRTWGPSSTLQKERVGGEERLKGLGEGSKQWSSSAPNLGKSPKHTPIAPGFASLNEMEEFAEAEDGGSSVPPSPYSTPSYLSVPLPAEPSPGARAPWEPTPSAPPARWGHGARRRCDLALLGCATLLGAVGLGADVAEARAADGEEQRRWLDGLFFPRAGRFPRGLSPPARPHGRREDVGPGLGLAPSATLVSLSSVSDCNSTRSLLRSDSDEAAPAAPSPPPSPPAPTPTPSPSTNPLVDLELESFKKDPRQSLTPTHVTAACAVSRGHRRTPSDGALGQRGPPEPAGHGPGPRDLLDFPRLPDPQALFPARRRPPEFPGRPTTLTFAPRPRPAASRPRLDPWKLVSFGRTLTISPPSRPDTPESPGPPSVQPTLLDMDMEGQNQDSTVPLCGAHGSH

GRK1(h) = biological target: T8, GRK1(h) (Homo sapiens, UniProt Q15835)
T8 construct: purchased Eurofins (KinaseProfiler)
T8 sequence (Q15835 1-563): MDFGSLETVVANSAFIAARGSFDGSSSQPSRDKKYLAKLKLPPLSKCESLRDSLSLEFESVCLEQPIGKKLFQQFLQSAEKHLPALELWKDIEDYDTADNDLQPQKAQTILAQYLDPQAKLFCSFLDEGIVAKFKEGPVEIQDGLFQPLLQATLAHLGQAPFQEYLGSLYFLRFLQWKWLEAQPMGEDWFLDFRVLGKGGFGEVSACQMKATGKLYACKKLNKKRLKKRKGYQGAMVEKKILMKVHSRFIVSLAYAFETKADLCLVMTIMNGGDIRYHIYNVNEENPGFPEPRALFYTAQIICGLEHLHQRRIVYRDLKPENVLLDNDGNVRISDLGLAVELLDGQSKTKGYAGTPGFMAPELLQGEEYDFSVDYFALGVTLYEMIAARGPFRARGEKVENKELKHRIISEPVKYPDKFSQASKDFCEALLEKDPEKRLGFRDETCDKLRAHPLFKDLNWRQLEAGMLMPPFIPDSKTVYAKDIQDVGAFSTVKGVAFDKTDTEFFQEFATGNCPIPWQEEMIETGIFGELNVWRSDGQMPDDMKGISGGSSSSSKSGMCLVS

CaMKK1(h) = biological target: T9, CaMKK1(h) (Homo sapiens, UniProt Q8N5S9)
T9 construct: purchased Eurofins (KinaseProfiler)
T9 sequence (Q8N5S9 whole entry): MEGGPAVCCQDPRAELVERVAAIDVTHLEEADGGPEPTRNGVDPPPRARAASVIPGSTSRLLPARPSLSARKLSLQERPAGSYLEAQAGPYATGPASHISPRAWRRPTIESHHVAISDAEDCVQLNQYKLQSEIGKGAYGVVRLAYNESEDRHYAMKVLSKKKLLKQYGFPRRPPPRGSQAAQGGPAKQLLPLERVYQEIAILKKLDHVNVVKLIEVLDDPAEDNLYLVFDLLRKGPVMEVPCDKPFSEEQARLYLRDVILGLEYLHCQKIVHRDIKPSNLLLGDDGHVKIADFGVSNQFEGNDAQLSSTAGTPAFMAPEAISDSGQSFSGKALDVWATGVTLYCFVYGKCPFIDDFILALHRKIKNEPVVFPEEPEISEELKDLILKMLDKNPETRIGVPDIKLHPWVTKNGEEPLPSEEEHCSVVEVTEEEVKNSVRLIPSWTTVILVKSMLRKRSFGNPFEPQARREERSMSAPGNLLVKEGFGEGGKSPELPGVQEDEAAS

FAK(h) = biological target: T10, FAK(h) (Homo sapiens, UniProt Q05397)
T10 construct: purchased Eurofins (KinaseProfiler)
T10 sequence (Q05397 whole entry): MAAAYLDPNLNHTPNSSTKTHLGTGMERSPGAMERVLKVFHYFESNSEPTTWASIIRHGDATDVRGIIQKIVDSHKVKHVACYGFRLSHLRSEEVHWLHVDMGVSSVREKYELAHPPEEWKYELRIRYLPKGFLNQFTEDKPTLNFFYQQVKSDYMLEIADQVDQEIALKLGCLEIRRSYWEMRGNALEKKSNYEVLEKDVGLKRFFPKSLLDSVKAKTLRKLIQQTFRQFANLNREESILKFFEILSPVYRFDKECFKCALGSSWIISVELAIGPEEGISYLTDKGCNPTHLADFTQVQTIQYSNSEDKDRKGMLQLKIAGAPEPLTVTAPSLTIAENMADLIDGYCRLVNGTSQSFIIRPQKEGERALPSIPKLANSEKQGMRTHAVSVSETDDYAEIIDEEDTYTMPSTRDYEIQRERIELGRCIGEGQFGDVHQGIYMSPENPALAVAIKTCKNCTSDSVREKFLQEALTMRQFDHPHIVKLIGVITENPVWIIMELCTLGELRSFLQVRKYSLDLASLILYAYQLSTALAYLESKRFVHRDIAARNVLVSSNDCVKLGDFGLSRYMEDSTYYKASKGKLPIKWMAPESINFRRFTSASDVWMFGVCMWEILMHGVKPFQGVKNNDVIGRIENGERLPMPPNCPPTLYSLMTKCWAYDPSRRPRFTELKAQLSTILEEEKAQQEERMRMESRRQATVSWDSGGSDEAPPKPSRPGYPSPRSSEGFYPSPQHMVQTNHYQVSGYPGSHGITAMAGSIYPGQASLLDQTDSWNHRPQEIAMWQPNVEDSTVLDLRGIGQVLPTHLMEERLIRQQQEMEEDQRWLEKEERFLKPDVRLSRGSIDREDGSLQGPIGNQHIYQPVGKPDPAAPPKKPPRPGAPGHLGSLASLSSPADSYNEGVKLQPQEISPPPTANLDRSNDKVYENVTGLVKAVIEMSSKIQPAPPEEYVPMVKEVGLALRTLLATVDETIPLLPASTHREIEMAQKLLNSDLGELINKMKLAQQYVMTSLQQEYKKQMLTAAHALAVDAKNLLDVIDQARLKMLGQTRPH

MINK(h) = biological target: T11, MINK(h) (Homo sapiens, UniProt Q8N4C8)
T11 construct: purchased Eurofins (KinaseProfiler)
T11 sequence (Q8N4C8 whole entry): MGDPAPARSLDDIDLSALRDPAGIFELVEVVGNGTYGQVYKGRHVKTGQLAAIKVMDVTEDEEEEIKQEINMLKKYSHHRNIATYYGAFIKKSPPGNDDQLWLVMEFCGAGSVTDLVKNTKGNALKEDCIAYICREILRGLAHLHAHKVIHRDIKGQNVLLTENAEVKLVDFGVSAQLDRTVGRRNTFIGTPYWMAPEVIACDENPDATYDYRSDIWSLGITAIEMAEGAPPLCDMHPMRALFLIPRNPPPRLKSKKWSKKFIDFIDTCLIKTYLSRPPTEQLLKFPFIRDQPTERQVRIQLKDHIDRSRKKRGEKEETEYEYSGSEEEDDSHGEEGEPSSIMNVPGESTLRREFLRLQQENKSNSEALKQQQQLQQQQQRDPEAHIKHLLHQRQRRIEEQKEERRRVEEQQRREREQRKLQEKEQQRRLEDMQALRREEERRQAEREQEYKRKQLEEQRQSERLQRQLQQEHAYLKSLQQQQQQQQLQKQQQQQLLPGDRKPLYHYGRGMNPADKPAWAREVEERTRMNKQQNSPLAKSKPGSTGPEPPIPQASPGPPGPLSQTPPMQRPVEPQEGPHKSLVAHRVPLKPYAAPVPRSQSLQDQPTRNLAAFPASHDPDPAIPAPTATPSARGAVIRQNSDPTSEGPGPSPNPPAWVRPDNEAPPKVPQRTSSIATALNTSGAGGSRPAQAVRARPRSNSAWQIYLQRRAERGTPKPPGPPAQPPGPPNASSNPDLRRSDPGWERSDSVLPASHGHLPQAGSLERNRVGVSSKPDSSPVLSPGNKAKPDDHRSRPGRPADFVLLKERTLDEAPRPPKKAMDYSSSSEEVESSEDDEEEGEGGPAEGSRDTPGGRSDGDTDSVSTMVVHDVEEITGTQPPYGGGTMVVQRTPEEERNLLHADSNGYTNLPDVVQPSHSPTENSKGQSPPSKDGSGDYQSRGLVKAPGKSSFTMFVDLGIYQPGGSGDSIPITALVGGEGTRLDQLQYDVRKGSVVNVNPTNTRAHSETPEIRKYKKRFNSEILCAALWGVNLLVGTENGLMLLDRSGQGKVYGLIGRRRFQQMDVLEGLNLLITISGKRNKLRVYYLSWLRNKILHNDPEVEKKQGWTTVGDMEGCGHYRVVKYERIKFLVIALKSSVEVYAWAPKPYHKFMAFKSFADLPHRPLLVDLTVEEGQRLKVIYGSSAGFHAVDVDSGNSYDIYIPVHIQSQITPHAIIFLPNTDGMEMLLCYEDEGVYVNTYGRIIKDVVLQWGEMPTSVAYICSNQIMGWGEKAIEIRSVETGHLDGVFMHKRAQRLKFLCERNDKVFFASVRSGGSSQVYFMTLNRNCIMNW

Rsk4(h) = biological target: T12, Rsk4(h) (Homo sapiens, UniProt Q9UK32)
T12 construct: purchased Eurofins (KinaseProfiler)
T12 sequence (Q9UK32 whole entry): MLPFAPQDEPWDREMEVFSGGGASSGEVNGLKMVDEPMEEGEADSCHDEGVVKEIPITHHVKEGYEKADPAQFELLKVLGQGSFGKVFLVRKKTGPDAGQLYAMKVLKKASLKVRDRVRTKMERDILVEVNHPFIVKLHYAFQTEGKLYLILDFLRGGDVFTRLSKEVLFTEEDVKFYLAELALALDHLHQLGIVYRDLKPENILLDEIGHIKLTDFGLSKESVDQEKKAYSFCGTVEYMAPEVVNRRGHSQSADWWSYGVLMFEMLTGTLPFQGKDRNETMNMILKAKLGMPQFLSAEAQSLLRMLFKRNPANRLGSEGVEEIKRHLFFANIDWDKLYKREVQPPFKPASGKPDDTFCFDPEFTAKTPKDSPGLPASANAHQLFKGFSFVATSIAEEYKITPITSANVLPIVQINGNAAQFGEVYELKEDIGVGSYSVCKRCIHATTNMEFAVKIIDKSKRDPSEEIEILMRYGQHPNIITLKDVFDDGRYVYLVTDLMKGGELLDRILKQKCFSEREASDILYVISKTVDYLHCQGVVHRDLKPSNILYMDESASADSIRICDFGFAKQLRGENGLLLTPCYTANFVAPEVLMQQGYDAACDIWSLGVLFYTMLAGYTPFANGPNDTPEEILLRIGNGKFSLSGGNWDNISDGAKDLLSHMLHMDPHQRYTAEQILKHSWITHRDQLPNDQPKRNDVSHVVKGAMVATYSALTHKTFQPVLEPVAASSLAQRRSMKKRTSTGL

`COc1cc(OC)c(Cl)c(-c2ccc3c(NC(=O)c4ccc(N5CCNC(C)(C)C5)cc4)n[nH]c3n2)c1Cl` [3D185] showed an inhibition at 0.01 µM (PKBγ(h); 10 nM) of 4%, an inhibition at 0.1 µM (PKBγ(h); 100 nM) of 12% and an inhibition at 1 µM (PKBγ(h); 1000 nM) of 20%. The inhibition at 0.01 µM (JAK1(h); 10 nM) was 13%, the inhibition at 0.1 µM (JAK1(h); 100 nM) was 15% and the inhibition at 1 µM (JAK1(h); 1000 nM) was 20%. For the same compound, the inhibition at 0.01 µM (EphB3(h); 10 nM) was 13%, the inhibition at 0.1 µM (EphB3(h); 100 nM) was 1% and the inhibition at 1 µM (EphB3(h); 1000 nM) was 5%. It also gave an inhibition at 0.01 µM (PKCβI(h); 10 nM) of -7%, an inhibition at 0.1 µM (PKCβI(h); 100 nM) of -3% and an inhibition at 1 µM (PKCβI(h); 1000 nM) of -1%. For the same compound, the inhibition at 0.01 µM (CK1γ1(h); 10 nM) was 9%, the inhibition at 0.1 µM (CK1γ1(h); 100 nM) was -4% and the inhibition at 1 µM (CK1γ1(h); 1000 nM) was 2%. It also gave an inhibition at 0.01 µM (CSK(h); 10 nM) of 8%, an inhibition at 0.1 µM (CSK(h); 100 nM) of 23% and an inhibition at 1 µM (CSK(h); 1000 nM) of 63%. For the same compound, the inhibition at 0.01 µM (MLK2(h); 10 nM) was 4%, the inhibition at 0.1 µM (MLK2(h); 100 nM) was 2% and the inhibition at 1 µM (MLK2(h); 1000 nM) was 24%. It also gave an inhibition at 0.01 µM (GRK1(h); 10 nM) of -2%, an inhibition at 0.1 µM (GRK1(h); 100 nM) of -5% and an inhibition at 1 µM (GRK1(h); 1000 nM) of -7%. The inhibition at 0.01 µM (CaMKK1(h); 10 nM) was -1%, the inhibition at 0.1 µM (CaMKK1(h); 100 nM) was 5% and the inhibition at 1 µM (CaMKK1(h); 1000 nM) was 35%. It also gave an inhibition at 0.01 µM (FAK(h); 10 nM) of 17%, an inhibition at 0.1 µM (FAK(h); 100 nM) of 29% and an inhibition at 1 µM (FAK(h); 1000 nM) of 58%. It also gave an inhibition at 0.01 µM (MINK(h); 10 nM) of 28%, an inhibition at 0.1 µM (MINK(h); 100 nM) of 68% and an inhibition at 1 µM (MINK(h); 1000 nM) of 90%. For the same compound, the inhibition at 0.01 µM (Rsk4(h); 10 nM) was 0%, the inhibition at 0.1 µM (Rsk4(h); 100 nM) was 6% and the inhibition at 1 µM (Rsk4(h); 1000 nM) was 19%.
